Assay results as given in patent US6506791B2, “Method of treatment of protozoan infections in fish” (Jacksonville State University, priority 2000, dated 2003).

How the values were obtained:
[1] = system: dog; conditions: cited from earlier work
[2] = exposure to sunlight; cited from earlier work
[3] = system: Ick theronts, both free-swimming tomites and non-ruptured cysts; test: Direct dosing of Ick parasites with Phloxine B, DARK EXPERIMENT (lab conditions); assay type: cell-based, Ichthyophthirius multifiliis
Procedure: (§1) An in vivo study was conducted involving the direct dosing of Ick parasites with Phloxine B. 1 μl of Ick theronts, both free-swimming tomites and non-ruptured cysts, and 9 μl of a Phloxine solution containing either 1000, 100, 10, 1 and 0 ppm of Phloxine B were placed into 100×15 mm tri-plate petri dishes providing 3 replicates for each treatment. 1 set of the plates was left exposed to ambient light (6 mE m^−2s^−1) for 5 hr (LIGHT EXPERIMENT), while the other set was kept in the dark for 4 hr then exposed to ambient light for 1 hr (DARK EXPERIMENT). Percent mortality was assessed, then both light and dark plates received a second dose of Phloxine B at the same concentration as before and treated in the same manner.

[4] = system: humans; conditions: according to the FDA (1982); cited from earlier work
[5] = system: Ick; test: Light and dark experiment with doubled exposure times (Example 2); assay type: cell-based, Ichthyophthirius multifiliis; conditions: 8 hr dark then 2 hr light or 10 hr light
Procedure: as §1
A light and dark experiment were set up following the protocol in Example 1, but exposure times were doubled—8 hr dark then 2 hr light or 10 hr light.

[6] = system: Ick theronts, both free-swimming tomites and non-ruptured cysts; test: Direct dosing of Ick parasites with Phloxine B, LIGHT EXPERIMENT (ambient light, lab); assay type: cell-based, Ichthyophthirius multifiliis
Procedure: as §1

[7] = system: Ick; test: LIGHT EXPERIMENT under greenhouse conditions (effect of light intensity); assay type: cell-based, Ichthyophthirius multifiliis
Procedure: as §1
An experiment was designed to test the effect of light intensity on the effectiveness of Phloxine B treatment of Ick. The previous experiments described in Examples 1 and 2 were conducted in the lab. The ambient light intensity in the lab was very low, 6 μmol m^−2s^−1. An experiment was conducted as following the protocol of Example 1, except the experiment was conducted in a greenhouse to better mimic natural light conditions.

[8] = cited from earlier work
[9] = system: Ick trophozoite stage attached to the fish host; test: Aquarium treatment of fish infected with Ick, microscopic examination; assay type: in vivo, Ichthyophthirius multifiliis; conditions: around 5 mg/L in aquarium, added in darkness, at least eight hours absorption, then artificial lamps
From the text: The effectiveness of treatments of photoactive dyes on parasite control in a particular fish population can be determined by those skilled in the art by monitoring the general behavior of the fish (swimming, feeding, etc.) and the appearance of the parasite by microscopic examination. For example, live Ick trophozoites may be monitored using image analysis microscopy using a Image-Pro Plus V. 4.0.0.13, available from Media Cybernetics, L.P.
In one embodiment of the invention, the photoactive dye, Phloxine B, is added as a dry powder to an aquarium containing fish infected with Ick. The Phloxine B is added to achieve a final concentration of around 5 mg/L. The Phloxine B is added to the aquarium in darkness and at least eight hours of absorption is allowed before photoactivation. Photoactivation is achieved by exposing the Ick infected fish to light from artificial lamps. […] Although this particular embodiment is performed in a laboratory setting, those skilled in the art will understand that the teachings can be adapted to a commercial operation without undue experimentation.

[10] = system: rat; conditions: cited from earlier work
[11] = system: mouse; conditions: cited from earlier work

SMILES: O=C([O-])c1c(Cl)c(Cl)c(Cl)c(Cl)c1-c1c2cc(Br)c(=O)c(Br)c-2oc2c(Br)c([O-])c(Br)cc12.[Na+].[Na+] [Phloxine B, 2′, 4′, 5′ 7′-tetrabromo-4,5,6,7-tetrachlorofluorescein, disodium salt]
- LD50 [1]: > 4600 mg/kg
- Time to degradation and detoxification [2]: < 1 h
- Percent mortality ([3]; 1 ppm, 1 dose, dark 4 hr then ambient light 1 hr): No effect
- Percent mortality ([3]; 1 ppm, 2 doses, dark 4 hr then ambient light 1 hr per dose): No effect
- Percent mortality ([3]; 10 ppm, 1 dose, dark 4 hr then ambient light 1 hr): No effect
- Percent mortality ([3]; 10 ppm, 2 doses, dark 4 hr then ambient light 1 hr per dose): No effect
- Percent mortality ([3]; 100 ppm, 1 dose, dark 4 hr then ambient light 1 hr): No effect
- Percent mortality ([3]; 100 ppm, 2 doses, dark 4 hr then ambient light 1 hr per dose): 10% Mortality
- Percent mortality ([3]; 1000 ppm, 1 dose, dark 4 hr then ambient light 1 hr): 40% Mortality
- Percent mortality ([3]; 1000 ppm, 2 doses, dark 4 hr then ambient light 1 hr per dose): 95% Mortality
- Relatively non-toxic ingested amount [4]: ≤ 1.25 mg/kg body weight
- Effect of exposure time on effectiveness of the dye [5]: longer exposure time increased the effectiveness
- Percent mortality ([6]; 1 ppm, 1 dose, ambient light 5 hr): No effect
- Percent mortality ([6]; 1 ppm, 2 doses, ambient light 5 hr per dose): No effect
- Percent mortality ([6]; 10 ppm, 1 dose, ambient light 5 hr): No effect
- Percent mortality ([6]; 10 ppm, 2 doses, ambient light 5 hr per dose): No effect
- Percent mortality ([6]; 100 ppm, 1 dose, ambient light 5 hr): 20% Mortality
- Percent mortality ([6]; 100 ppm, 2 doses, ambient light 5 hr per dose): 80% Mortality
- Percent mortality ([6]; 1000 ppm, 1 dose, ambient light 5 hr): 80% Mortality
- Percent mortality ([6]; 1000 ppm, 2 doses, ambient light 5 hr per dose): 100% Mortality
- Uptake of the dye by free-swimming and encysted organisms ([6]; observation from Examples 1-3): taken up both free-swimming and encysted organisms
- Percent mortality ([7]; 1 ppm): No effect
- Percent mortality ([7]; 10 ppm, 1 dose): No effect
- Percent mortality ([7]; 100 ppm, 1 dose): 50% Mortality
- Percent mortality ([7]; 1000 ppm, 1 dose): 100% Mortality
- Water solubility [8]: greater than 120 mg/l
- Effectiveness against trophozoite stage attached to the fish host [9]: effective against the formerly invulnerable trophozoite stage
- LD50 [10]: 8400 mg/kg
- LD50 [11]: 310 mg/kg
